# Reference: PubChem BioAssay (NCI)
#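 GI50 marks 50% less growth. The concentration for full growth arrest is given as TGI.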
# Assays:
# Experiment in all cases: NCI-60 cell line screen, 384-well format
# 786-0 renal = system: 786-0 renal
# A498 renal = system: A498 renal
# A549 NSCLC = system: A549 NSCLC
# ACHN renal = system: ACHN renal
# BT-549 breast = system: BT-549 breast
# CAKI-1 renal = system: CAKI-1 renal
# CCRF-CEM leukemia = system: CCRF-CEM leukemia
# COLO 205 colon = system: COLO 205 colon
# DU-145 prostate = system: DU-145 prostate
# HCC-2998 colon = system: HCC-2998 colon
# HCT-116 colon = system: HCT-116 colon
# HCT-15 colon = system: HCT-15 colon
# HL-60(TB) leukemia = system: HL-60(TB) leukemia
# HOP-62 NSCLC = system: HOP-62 NSCLC
# HOP-92 NSCLC = system: HOP-92 NSCLC
# HT29 colon = system: HT29 colon
# K-562 leukemia = system: K-562 leukemia
# KM12 colon = system: KM12 colon
# LOX IMVI melanoma = system: LOX IMVI melanoma
# M14 melanoma = system: M14 melanoma
# MALME-3M melanoma = system: MALME-3M melanoma
# MCF7 breast = system: MCF7 breast
# MDA-MB-231 breast = system: MDA-MB-231 breast
# MDA-MB-435 melanoma = system: MDA-MB-435 melanoma
# MDA-MB-468 breast = system: MDA-MB-468 breast
# MOLT-4 leukemia = system: MOLT-4 leukemia
# NCI-H226 lung = system: NCI-H226 lung
# NCI-H23 lung = system: NCI-H23 lung
# NCI-H322M lung = system: NCI-H322M lung
# NCI-H460 NSCLC = system: NCI-H460 NSCLC
# NCI-H522 lung = system: NCI-H522 lung
# NCI/ADR-RES ovarian = system: NCI/ADR-RES ovarian
# OVCAR-3 ovarian = system: OVCAR-3 ovarian
# OVCAR-4 ovarian = system: OVCAR-4 ovarian
# OVCAR-5 ovarian = system: OVCAR-5 ovarian
# OVCAR-8 ovarian = system: OVCAR-8 ovarian
# PC-3 prostate = system: PC-3 prostate
# RPMI-8226 leukemia = system: RPMI-8226 leukemia
# RXF 393 renal = system: RXF 393 renal
# SF-268 CNS = system: SF-268 CNS
# SF-295 CNS = system: SF-295 CNS
# SF-539 CNS = system: SF-539 CNS
# SK-MEL-2 melanoma = system: SK-MEL-2 melanoma
# SK-MEL-28 melanoma = system: SK-MEL-28 melanoma
# SK-MEL-5 melanoma = system: SK-MEL-5 melanoma
# SK-OV-3 ovarian = system: SK-OV-3 ovarian
# SN12C renal = system: SN12C renal
# SNB-19 CNS = system: SNB-19 CNS
# SR leukemia = system: SR leukemia
# SW-620 colon = system: SW-620 colon
# T-47D breast = system: T-47D breast
# TK-10 renal = system: TK-10 renal
# U251 glioblastoma = system: U251 glioblastoma
# UACC-257 melanoma = system: UACC-257 melanoma
# UACC-62 melanoma = system: UACC-62 melanoma
# UO-31 renal = system: UO-31 renal
smiles,measurement,setting,value
CCN1C(C)(C)CC(Oc2ccc(C(=O)Nc3ccc(NC(=O)Nc4cc(C(C)(C)C)on4)cc3)nc2)CC1(C)C,GI50,786-0 renal,1.52 µM
same,TGI,786-0 renal,2.87 µM
same,GI50,A498 renal,1.6 µM
same,TGI,A498 renal,3.02 µM
same,GI50,A549 NSCLC,1.83 µM
same,TGI,A549 NSCLC,3.32 µM
same,GI50,ACHN renal,1.75 µM
same,TGI,ACHN renal,3.2 µM
same,GI50,BT-549 breast,1.55 µM
same,TGI,BT-549 breast,2.9 µM
same,GI50,CAKI-1 renal,1.62 µM
same,TGI,CAKI-1 renal,3.22 µM
same,GI50,CCRF-CEM leukemia,1.8 µM
same,TGI,CCRF-CEM leukemia,3.2 µM
same,GI50,COLO 205 colon,1.79 µM
same,TGI,COLO 205 colon,3.2 µM
same,GI50,DU-145 prostate,1.88 µM
same,TGI,DU-145 prostate,3.49 µM
same,GI50,HCC-2998 colon,1.6 µM
same,TGI,HCC-2998 colon,2.98 µM
same,GI50,HCT-116 colon,1.63 µM
same,TGI,HCT-116 colon,3.01 µM
same,GI50,HCT-15 colon,1.61 µM
same,TGI,HCT-15 colon,2.99 µM
same,GI50,HL-60(TB) leukemia,2.51 µM
same,TGI,HL-60(TB) leukemia,5.71 µM
same,GI50,HOP-62 NSCLC,1.88 µM
same,TGI,HOP-62 NSCLC,3.34 µM
same,GI50,HOP-92 NSCLC,1.65 µM
same,TGI,HOP-92 NSCLC,3.16 µM
same,GI50,HT29 colon,0.832 µM
same,TGI,HT29 colon,2.09 µM
same,GI50,K-562 leukemia,1.6 µM
same,TGI,K-562 leukemia,2.97 µM
same,GI50,KM12 colon,1.74 µM
same,TGI,KM12 colon,3.14 µM
same,GI50,LOX IMVI melanoma,1.86 µM
same,TGI,LOX IMVI melanoma,3.27 µM
same,GI50,M14 melanoma,1.71 µM
same,TGI,M14 melanoma,3.09 µM
same,GI50,MALME-3M melanoma,1.41 µM
same,TGI,MALME-3M melanoma,2.72 µM
same,GI50,MCF7 breast,1.55 µM
same,TGI,MCF7 breast,2.91 µM
same,GI50,MDA-MB-231 breast,1.77 µM
same,TGI,MDA-MB-231 breast,3.23 µM
same,GI50,MDA-MB-435 melanoma,2 µM
same,TGI,MDA-MB-435 melanoma,3.44 µM
same,GI50,MDA-MB-468 breast,2.03 µM
same,TGI,MDA-MB-468 breast,3.56 µM
same,GI50,MOLT-4 leukemia,1.67 µM
same,TGI,MOLT-4 leukemia,3.06 µM
same,GI50,NCI-H226 lung,1.68 µM
same,TGI,NCI-H226 lung,3.08 µM
same,GI50,NCI-H23 lung,3.33 µM
same,TGI,NCI-H23 lung,8.85 µM
same,GI50,NCI-H322M lung,2.02 µM
same,TGI,NCI-H322M lung,4.14 µM
same,GI50,NCI-H460 NSCLC,1.8 µM
same,TGI,NCI-H460 NSCLC,3.24 µM
same,GI50,NCI-H522 lung,1.77 µM
same,TGI,NCI-H522 lung,3.16 µM
same,GI50,NCI/ADR-RES ovarian,1.82 µM
same,TGI,NCI/ADR-RES ovarian,3.72 µM
same,GI50,OVCAR-3 ovarian,1.69 µM
same,TGI,OVCAR-3 ovarian,3.1 µM
same,GI50,OVCAR-4 ovarian,1.56 µM
same,TGI,OVCAR-4 ovarian,3.77 µM
same,GI50,OVCAR-5 ovarian,2.08 µM
same,TGI,OVCAR-5 ovarian,3.84 µM
same,GI50,OVCAR-8 ovarian,1.77 µM
same,TGI,OVCAR-8 ovarian,3.19 µM
same,GI50,PC-3 prostate,1.95 µM
same,TGI,PC-3 prostate,3.5 µM
same,GI50,RPMI-8226 leukemia,0.654 µM
same,TGI,RPMI-8226 leukemia,1.75 µM
same,GI50,RXF 393 renal,0.384 µM
same,TGI,RXF 393 renal,1.47 µM
same,GI50,SF-268 CNS,1.68 µM
same,TGI,SF-268 CNS,3.11 µM
same,GI50,SF-295 CNS,1.84 µM
same,TGI,SF-295 CNS,3.25 µM
same,GI50,SF-539 CNS,1.3 µM
same,TGI,SF-539 CNS,2.58 µM
same,GI50,SK-MEL-2 melanoma,1.25 µM
same,TGI,SK-MEL-2 melanoma,2.5 µM
same,GI50,SK-MEL-28 melanoma,1.58 µM
same,TGI,SK-MEL-28 melanoma,2.94 µM
same,GI50,SK-MEL-5 melanoma,1.52 µM
same,TGI,SK-MEL-5 melanoma,2.86 µM
same,GI50,SK-OV-3 ovarian,1.71 µM
same,TGI,SK-OV-3 ovarian,3.1 µM
same,GI50,SN12C renal,1.71 µM
same,TGI,SN12C renal,3.09 µM
same,GI50,SNB-19 CNS,1.98 µM
same,TGI,SNB-19 CNS,3.48 µM
same,GI50,SR leukemia,1.29 µM
same,TGI,SR leukemia,2.57 µM
same,GI50,SW-620 colon,1.94 µM
same,TGI,SW-620 colon,3.38 µM
same,GI50,T-47D breast,1.43 µM
same,TGI,T-47D breast,2.79 µM
same,GI50,TK-10 renal,1.92 µM
same,TGI,TK-10 renal,3.87 µM
same,GI50,U251 glioblastoma,1.65 µM
same,TGI,U251 glioblastoma,3.03 µM
same,GI50,UACC-257 melanoma,1.33 µM
same,TGI,UACC-257 melanoma,2.61 µM
same,GI50,UACC-62 melanoma,1.87 µM
same,TGI,UACC-62 melanoma,3.29 µM
same,GI50,UO-31 renal,1.76 µM
same,TGI,UO-31 renal,3.21 µM
